Values after ≈ are worked out from the molar mass of the structure shown.
Legend:
L1210 cells = test: cells; assay type: cell-based; details: Mus musculus, L1210, 72 h, read-out: Cytotoxicity TD50 L1210
Method: In vitro L1210 cell cytotoxicity assay was done by the method of microculture tetrazolium assay (Alley et al., Cancer Research, 48, 589-601 (1988)). L1210 cells were cultivated in RPMI 1640 medium supplemented with 10% fetal calf serum and […] of 2-mercaptoethanol at 37° C. in humidified 5% CO2 atmosphere to prepare a cell stock. Cells were counted using neubauer hemocytometer and seed in 96 well plates at 100 μl of 0.5×10^4 cells per ml. The test compounds were diluted and 100 μl of the solution was added in triplicate wells to give the final concentration of 10, 5, 1, 0.5 and 0.1 μg/ml. Control wells were identical except that the test compound was absent. These were cultured for three days. Results were assayed using the microculture tetrazolium assay briefly. 50 μl of MTT formazoan working solution (1:5 v/v in culture medium) was added to each well and cultures were incubated at 37° C. for 4 hrs. Culture plates were centrifuged at low speed for 5 minutes. All but 10-20 μl of culture medium supernatant was removed by slow aspiration and replaced by 50 μl of DMSO. The formazoan was dissolved by shaking on a mechanical shaker and read at OD540 on a multiscan spectrophotometer. TD50 values were calculated using the formula: [formula] to give interpolative values between two dilutions.

KB cells = test: In Vitro KB Cell Cytotoxicity Assay (crystal violet); assay type: cell-based; details: Homo sapiens, 72 h, read-out: Cytotoxicity TD50 KB
Method: KB cells were cultivated in Eagles minimum essential medium supplemented with 10% calf serum and incubated at 37° C. in a humidified 5% CO2 atmosphere to prepare a cell stock. Cells were counted using a neubauer hemocytometer and seeded in 96 well plates at 100 μl of 3×10^4 cells/ml and cultured for one day. […] Control wells were identical except that test compound was absent. These were cultured for three days. […] Then stained with 100 μl of 0.05% crystal violet for 15 minutes, washed with water and dried. The wells were eluted with 100 μl of 0.05M NaH2 PO4 /ethanol (1:1 v/v) and read at OD540 on a multiscan spectrophotometer. TD50 values were calculated using the following formula.

Sarcoma 180 = test: In Vivo Antitumor Activity Against Sarcoma 180; details: for Mortality in 12 days: i.p., days 1, 5 and 9
Method: Sarcoma 180, 5×10^6 cells were inoculated by S.C. to male ICR mice (6 weeks old) on day 0. Drugs were administered on days 1, 5 and 9. Mice were killed and tumor weight was measured on day 12 after transplantation. The percentage inhibition of tumor growth was calculated from the mean tumor weight of the treated group compared with that of the control group. Number of mice used in each group was between 6 to 10.

[1] = Mus musculus, Sarcoma-180, ip, 288 h, read-out: % Inhibition of tumor growth

| SMILES | CC50 (KB cells) [µg/mL] | further results |
| --- | --- | --- |
| CCCC(=O)OC[C@H]1CN2C(=O)C[C@@H]2O1 (racemic) [compound 5, (3RS, 5SR)-3-Butyryloxymethyl-4-oxa-1-azabicyclo [3,2,0]heptan-7-one] | 0.3 (≈ 1.41 µM) | CC50 (L1210 cells): 0.45 µg/mL (≈ 2.11 µM) |
| CCCCCCCC(=O)OC[C@H]1CN2C(=O)C[C@@H]2O1 (racemic) [compound 7, (3RS, 5SR)-3-(n-Octanoyloxymethyl)-4-oxa-1-azabicyclo[3,2,0] heptan-7-one] | 0.1 (≈ 0.371 µM) | CC50 (L1210 cells): 0.34 µg/mL (≈ 1.26 µM) |
| CC(C)C(=O)OC[C@H]1CN2C(=O)C[C@@H]2O1 (racemic) [compound 9, (3RS, 5SR)-3-(2-Methylpropionyloxymethyl)-4-oxa-1-azabicyclo [3,2,0]heptan-7-one] | 0.4 (≈ 1.88 µM) | – |
| C#CCCC(=O)OC[C@H]1CN2C(=O)C[C@@H]2O1 (racemic) [compound 17, (3RS, 5SR)-3-(4-Pentynoyloxymethyl)-4-oxa-1-azabicyclo [3,2,0]heptan-7-one] | 0.27 (≈ 1.21 µM) | – |
| O=C(OC[C@H]1CN2C(=O)C[C@@H]2O1)c1ccccc1 (racemic) [compound 18, (3RS, 5SR)-3-Benzoyloxymethyl-4-oxa-1-azabicyclo[3,2,0]heptan-7-one] | 5 (≈ 20.2 µM) | – |
| O=C([O-])c1ccccc1C(=O)OC[C@H]1CN2C(=O)C[C@@H]2O1.[Na+] (racemic) [compound 25, Sodium (3RS, 5SR)-2-[(4-oxa-1-azabicyclo [3,2,0]heptan-7-one-3-yl)methyloxycarbonyl]benzoate] | 1.5 | Mortality in 12 days (Sarcoma 180; 100 mg/kg/day): 2/6; inhibition in vivo at 100 mg/kg (Sarcoma 180; [1]): 44.1% |
| O=C(CC(O)C(=O)OC[C@H]1CN2C(=O)C[C@@H]2O1)OC[C@H]1CN2C(=O)C[C@@H]2O1 (mixture of isomers) [compound 28, Bis [(3RS, 5SR)-(4-oxa-1-azabicyclo[3,2,0]heptan-7-one-3-yl)-methyl]-2-hydroxysuccinate] | 0.3 (≈ 0.781 µM) | – |
| O=C(OC[C@H]1CN2C(=O)C[C@@H]2O1)C(O)C(O)C(=O)OC[C@H]1CN2C(=O)C[C@@H]2O1 (mixture of isomers) [compound 29, Bis [(3RS, 5SR)-(4-oxa-1-azabicyclo[3,2,0]heptan-7-one-3-yl)-methyl]-2,3-dihydroxysuccinate] | 0.3 (≈ 0.749 µM) | – |
| O=C(OC[C@H]1CN2C(=O)C[C@@H]2O1)c1ccc(F)cc1 (racemic) [compound 31, (3RS, 5SR)-3-(4-Fluorobenzoyloxymethyl)-4-oxa-1-azabicyclo [3,2,0]heptan-7-one] | 0.4 (≈ 1.51 µM) | Mortality in 12 days (Sarcoma 180; 12.5 mg/kg/day): 0/7; Mortality in 12 days (Sarcoma 180; 25 mg/kg/day): 0/7; inhibition in vivo at 12.5 mg/kg (Sarcoma 180; [1]): 53.2%; inhibition in vivo at 25 mg/kg (Sarcoma 180; [1]): 69.4% |
| O=C(OC[C@H]1CN2C(=O)C[C@@H]2O1)c1cc(F)c(F)cc1F (racemic) [compound 32, (3RS, 5SR)-3-(2,4,5-Trifluorobenzoyloxymethyl)-4-oxa-1-azabicyclo[3,2,0]heptan-7-one] | 0.3 (≈ 0.996 µM) | – |
| Nc1ccc(C(=O)OC[C@H]2CN3C(=O)C[C@@H]3O2)cc1 (racemic) [compound 34, (3RS, 5SR)-3-(4-Aminobenzoyloxymethyl)-4-oxa-1-azabicyclo [3,2,0]heptan-7-one] | 0.4 (≈ 1.53 µM) | – |
| COc1cc(C(=O)OC[C@H]2CN3C(=O)C[C@@H]3O2)cc(OC)c1O (racemic) [compound 35, (3RS, 5SR)-3-(4-Hydroxy-3,5-dimethoxybenzoyloxymethyl)-4-oxa-1-azabicyclo [3,2,0]heptan-7-one] | 0.8 (≈ 2.47 µM) | – |
| O=C1C[C@@H]2O[C@@H](CSCc3ccccc3)CN12 (racemic) [compound 41, (3RS,5SR)-3-Benzylthiomethyl-4-oxa-1-azabicyclo[3,2,0]heptan-7-one] | 5 (≈ 20.1 µM) | Mortality in 12 days (Sarcoma 180; 6.25 mg/kg/day): 0/6; inhibition in vivo at 6.25 mg/kg (Sarcoma 180; [1]): 17.1% |
| O=C1C[C@@H]2O[C@@H](CS(=O)(=O)Cc3ccccc3)CN12 (racemic) [compound 43, (3RS, 5SR)-3-Benzylsulfonylmethyl-4-oxa-1-azabicyclo[3,2,0]heptan-7-one] | 0.5 (≈ 1.78 µM) | Mortality in 12 days (Sarcoma 180; 12.5 mg/kg/day): 0/6; inhibition in vivo at 12.5 mg/kg (Sarcoma 180; [1]): 19.5% |
| O=C1C[C@@H]2O[C@@H](CSc3ccccc3)CN12 (racemic) [compound 44, (3RS, 5SR)-3-Phenylthiomethyl-4-oxa-1-azabicyclo[3,2,0]heptan-7-one] | 3 (≈ 12.7 µM) | – |
| O=C1C[C@@H]2O[C@@H](CS(=O)(=O)c3ccccc3)CN12 (racemic) [compound 46, (3RS, 5SR)-3-Phenylsulfonylmethyl-4-oxa-1-azabicyclo[3,2,0]heptan-7-one] | 2 (≈ 7.48 µM) | – |
| O=C1C[C@@H]2O[C@H](CCO)CN12 (racemic) [compound 50, (3RS, 5SR)-3-Hydroxyethyl-4-oxa-1-azabicyclo[3,2,0]heptan-7-one] | 0.7 (≈ 4.45 µM) | Mortality in 12 days (Sarcoma 180; 50 mg/kg/day): 0/6; inhibition in vivo at 50 mg/kg (Sarcoma 180; [1]): 65.3% |

| SMILES | CC50 (KB cells) [µg/mL] | further results |
| --- | --- | --- |
| Cc1ccc(S(=O)(=O)C[C@H]2CN3C(=O)C[C@@H]3O2)cc1 (racemic) [compound 51, (3RS, 5SR)-3-(4-Methylbenzenesulfonyl)methyl-4-oxa-1-azabicyclo[3,2,0]heptan-7-one] | 1 (≈ 3.55 µM) | – |
| CC(C)CC(=O)OC[C@H]1CN2C(=O)C[C@@H]2O1 (relative stereo) [compound 10, (3RS, 5SR)-3-Methylbutyryloxymethyl-4-oxa-1-azabicyclo [3,2,0]heptan-7-one] | 0.25 (≈ 1.1 µM) | – |
| CC(C)CCC(=O)OC[C@H]1CN2C(=O)C[C@@H]2O1 (relative stereo) [compound 11] | 0.4 (≈ 1.66 µM) | – |
| CCCCC(C)C(=O)OC[C@H]1CN2C(=O)C[C@@H]2O1 (relative stereo) [compound 12] | 0.4 (≈ 1.57 µM) | – |
| Cc1cc(C)c(C(=O)OC[C@H]2CN3C(=O)C[C@@H]3O2)c(C)c1 (relative stereo) [compound 19] | 2 (≈ 6.91 µM) | – |
| COc1ccc(C(=O)OC[C@H]2CN3C(=O)C[C@@H]3O2)cc1 (relative stereo) [compound 20] | 0.6 (≈ 2.16 µM) | Mortality in 12 days (Sarcoma 180; 3.13 mg/kg/day): 0/7; Mortality in 12 days (Sarcoma 180; 6.25 mg/kg/day): 0/7; Mortality in 12 days (Sarcoma 180; 12.5 mg/kg/day): 0/7; Mortality in 12 days (Sarcoma 180; 25 mg/kg/day): 0/7; inhibition in vivo at 3.13 mg/kg (Sarcoma 180; [1]): 60%; inhibition in vivo at 6.25 mg/kg (Sarcoma 180; [1]): 68.6%; inhibition in vivo at 12.5 mg/kg (Sarcoma 180; [1]): 59.1%; inhibition in vivo at 25 mg/kg (Sarcoma 180; [1]): 74.1% |
| O=C(OC[C@H]1CN2C(=O)C[C@@H]2O1)c1ccc(O)cc1 (relative stereo) [compound 21] | 2.2 (≈ 8.36 µM) | Mortality in 12 days (Sarcoma 180; 50 mg/kg/day): 0/6; inhibition in vivo at 50 mg/kg (Sarcoma 180; [1]): 48.3% |
| O=C(OC[C@H]1CN2C(=O)C[C@@H]2O1)c1ccc(O)c(O)c1 (relative stereo) [compound 22] | 2.5 (≈ 8.95 µM) | – |
| O=C(O)COc1ccc(C(=O)OC[C@H]2CN3C(=O)C[C@@H]3O2)cc1 (relative stereo) [compound 23, Sodium (3RS, 5SR)-4-(4-oxa-1-azabicyclo [3,2,0]heptan-7-one-3-methyloxycarbonyl)phenoxyacetate] | 8.7 | Mortality in 12 days (Sarcoma 180; 50 mg/kg/day): 0/6; inhibition in vivo at 50 mg/kg (Sarcoma 180; [1]): 23.7% |
| O=C(O)C1CCCCC1C(=O)OC[C@H]1CN2C(=O)C[C@@H]2O1 (relative stereo) [compound 24, Sodium (3RS, 5SR)-2-(4-oxa-1-azabicyclo [3,2,0]heptan-7-one-3-methyloxycarbonyl)cyclohexyl-2-carboxylate] | 0.7 | – |
| O=C(O)CCC(=O)OC[C@H]1CN2C(=O)C[C@@H]2O1 (relative stereo) [compound 26] | 9.8 (≈ 40.3 µM) | – |
| O=C(O)/C=C/C(=O)OC[C@H]1CN2C(=O)C[C@@H]2O1 (relative stereo) [compound 27, Sodium [(3RS, 5SR)-(4-oxa-1-azabicyclo[3,2,0]heptan-7-one-3-yl)methyl]fumarate] | 2.4 | – |
| O=C(/C=C\C(=O)OC[C@H]1CN2C(=O)C[C@@H]2O1)OC[C@H]1CN2C(=O)C[C@@H]2O1 (relative stereo) [compound 30, Bis [(3RS, 5SR)-(4-oxa-1-azabicyclo[3,2,0]heptan-7-one-3-yl)-methyl]maleate] | 0.05 (≈ 0.136 µM) | Mortality in 12 days (Sarcoma 180; 12.5 mg/kg/day): 0/6; Mortality in 12 days (Sarcoma 180; 25 mg/kg/day): 0/6; inhibition in vivo at 12.5 mg/kg (Sarcoma 180; [1]): 34%; inhibition in vivo at 25 mg/kg (Sarcoma 180; [1]): 76.9% |
| N#Cc1ccc(C(=O)OC[C@H]2CN3C(=O)C[C@@H]3O2)cc1 (relative stereo) [compound 33, (3RS, 5SR)-3-(4-Cyanobenzoyloxyymethyl)-4-oxa-1-azabicyclo [3,2,0]heptan-7-one] | 0.3 (≈ 1.1 µM) | – |
| COc1ccc(COC[C@H]2CN3C(=O)C[C@@H]3O2)cc1OC [39A] | 0.56 (≈ 1.91 µM) | – |
| COc1ccc(COC[C@H]2CN3C(=O)C[C@H]3O2)cc1OC [39B, (3R,5R)-3-(3,4-Dimethoxybenzyloxymethyl)-4-oxa-1-azabicyclo[3,2,0] heptan-7-one] | 0.57 (≈ 1.94 µM) | – |

Source: patent US5561126A, “4-oxa-1-azabicyclo [3,2,0] heptan-7-one derivatives as antitumor agents” (Taiho Pharmaceutical Co., Ltd., priority 1992, dated 1996)
